Molecular target: CDK4 (Homo sapiens, UniProt P11802+Q16531)
Experiment: HiBiT detection of HiBiT-tagged CDK4 protein level in MCF7 cells, 16 hours (Table 8)
Type: cell-based
Design: expressed in transfected cells; host or cells: MCF7
Conditions: MCF7 cells stably expressing HiBiT tagged target proteins; for activity at 0.01 µM: 10 nM, read-out: % CDK4 Relative Level (10 nM); for activity at 0.1 µM: 100 nM, read-out: % CDK4 Relative Level (100 nM)
Procedure: HiBiT detection system quantitatively measures total amounts of HiBiT-tagged proteins using a luminescent based method. MCF7 cells stably expressing HiBiT tagged target proteins were treated with heterobifunctional compounds at indicated concentrations for 16 hours, then lysed with Nano-Glo HiBiT Lytic detection reagents.

CDK4, sequence (P11802 whole entry): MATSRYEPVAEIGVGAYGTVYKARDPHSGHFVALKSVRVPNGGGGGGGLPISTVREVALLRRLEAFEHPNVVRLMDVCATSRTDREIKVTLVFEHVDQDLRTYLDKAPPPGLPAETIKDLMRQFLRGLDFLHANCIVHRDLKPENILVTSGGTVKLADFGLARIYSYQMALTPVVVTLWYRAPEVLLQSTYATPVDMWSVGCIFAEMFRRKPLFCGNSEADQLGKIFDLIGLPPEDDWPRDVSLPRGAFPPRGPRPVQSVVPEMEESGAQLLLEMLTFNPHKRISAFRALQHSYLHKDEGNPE
CDK4, sequence (P24385 whole entry partner): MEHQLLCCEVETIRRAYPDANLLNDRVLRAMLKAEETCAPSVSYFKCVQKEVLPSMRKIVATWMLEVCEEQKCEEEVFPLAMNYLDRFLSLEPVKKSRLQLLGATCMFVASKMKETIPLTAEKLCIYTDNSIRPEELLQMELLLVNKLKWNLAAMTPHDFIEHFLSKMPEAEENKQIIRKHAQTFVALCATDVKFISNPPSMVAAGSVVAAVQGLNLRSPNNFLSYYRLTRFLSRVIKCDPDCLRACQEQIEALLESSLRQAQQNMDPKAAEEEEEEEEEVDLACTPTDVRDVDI
CDK4, sequence (Q16531 2-1140 limits assumed): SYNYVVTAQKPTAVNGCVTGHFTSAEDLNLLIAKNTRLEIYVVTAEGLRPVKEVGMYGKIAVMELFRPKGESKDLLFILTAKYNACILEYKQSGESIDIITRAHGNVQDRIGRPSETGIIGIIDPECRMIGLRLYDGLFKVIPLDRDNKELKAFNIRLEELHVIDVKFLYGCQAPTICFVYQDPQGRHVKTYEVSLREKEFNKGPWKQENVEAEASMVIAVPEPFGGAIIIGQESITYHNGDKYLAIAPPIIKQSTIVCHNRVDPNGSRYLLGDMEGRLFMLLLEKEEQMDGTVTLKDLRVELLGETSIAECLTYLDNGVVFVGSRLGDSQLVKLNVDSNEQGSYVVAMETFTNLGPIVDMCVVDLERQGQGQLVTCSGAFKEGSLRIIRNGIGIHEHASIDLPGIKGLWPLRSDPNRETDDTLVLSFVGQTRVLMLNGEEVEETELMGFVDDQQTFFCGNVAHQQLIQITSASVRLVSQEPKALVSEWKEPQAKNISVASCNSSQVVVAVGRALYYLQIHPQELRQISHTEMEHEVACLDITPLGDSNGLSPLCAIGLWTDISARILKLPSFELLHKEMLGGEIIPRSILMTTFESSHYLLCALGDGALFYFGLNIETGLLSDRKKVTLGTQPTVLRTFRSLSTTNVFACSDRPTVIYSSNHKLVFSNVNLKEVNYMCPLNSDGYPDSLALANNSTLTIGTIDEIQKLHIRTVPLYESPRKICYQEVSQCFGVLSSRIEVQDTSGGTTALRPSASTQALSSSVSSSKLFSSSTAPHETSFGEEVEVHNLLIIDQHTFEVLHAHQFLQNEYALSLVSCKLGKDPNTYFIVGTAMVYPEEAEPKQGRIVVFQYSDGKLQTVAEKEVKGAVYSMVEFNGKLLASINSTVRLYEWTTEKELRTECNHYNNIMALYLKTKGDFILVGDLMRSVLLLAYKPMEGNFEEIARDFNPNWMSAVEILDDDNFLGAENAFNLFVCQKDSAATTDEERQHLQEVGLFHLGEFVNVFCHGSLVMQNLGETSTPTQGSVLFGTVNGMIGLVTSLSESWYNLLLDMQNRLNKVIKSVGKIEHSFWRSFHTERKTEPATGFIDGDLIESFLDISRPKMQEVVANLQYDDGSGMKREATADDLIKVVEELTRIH

Row | SMILES | activity at 0.01 µM [%] | activity at 0.1 µM [%]
1 | CC(C)Nc1ccc(C(=O)Nc2ccc(N(C)C)nn2)c(NC2CC3(C2)CN(C(=O)CN2CCN(Cc4ccc(Nc5ncc6cc(C(=O)N(C)C)n(C7CCCC7)c6n5)nc4)CC2)C3)n1 [CPD-563, 7-cyclopentyl-2-((5-((4-(2-(6-((3-((6-(dimethylamino)pyridazin-3-yl)carbamoyl)-6-(isopropylamino)pyridin-2-yl)amino)-2-azaspiro[3.3]heptan-2-yl)-2-oxoethyl)piperazin-1-yl)methyl)pyridin-2-yl)amino)-N,N-dimethyl-7H-pyrrolo[2,3-d]pyrimidine-6-carboxamide] | > 85 | > 85
2 | CC(=O)c1c(C)c2cnc(Nc3ccc(CN4CCC(CC(=O)NC5CC6(C5)CC(Nc5nc(NC(C)C)ccc5C(=O)Nc5ccc(N(C)C)nn5)C6)CC4)cn3)nc2n(C2CCCC2)c1=O (stereo not drawn) [CPD-593, 2-((6-(2-(1-((6-((6-acetyl-8-cyclopentyl-5-methyl-7-oxo-7,8-dihydropyrido[2,3-d]pyrimidin-2-yl)amino)pyridin-3-yl)methyl)piperidin-4-yl)acetamido)spiro[3.3]heptan-2-yl)amino)-N-(6-(dimethylamino)pyridazin-3-yl)-6-(isopropylamino)nicotinamide] | > 85 | > 85
3 | CCc1ccc(C(=O)Nc2ccc(N(C)C)nn2)c(NC2CC3(CC(NC(=O)CN4CCN(Cc5ccc(Nc6ncc7c(C)c(C(C)=O)c(=O)n(C8CCCC8)c7n6)nc5)CC4)C3)C2)c1 (stereo not drawn) [CPD-598, 2-((6-(2-(4-((6-((6-acetyl-8-cyclopentyl-5-methyl-7-oxo-7,8-dihydropyrido[2,3-d]pyrimidin-2-yl)amino)pyridin-3-yl)methyl)piperazin-1-yl)acetamido)spiro[3.3]heptan-2-yl)amino)-N-(6-(dimethylamino)pyridazin-3-yl)-4-ethylbenzamide] | 55 to 85 | > 85
4 | CNc1ccc(C(=O)Nc2ccc(N(C)C)nn2)c(NCCCCCCC(=O)N2CCN(Cc3ccc(Nc4ncc(F)c(-c5cc(F)c6nc(C)n(C(C)C)c6c5)n4)nc3)CC2)n1 [CPD-604, N-(6-(dimethylamino)pyridazin-3-yl)-2-((7-(4-((6-((5-fluoro-4-(4-fluoro-1-isopropyl-2-methyl-1H-benzo[d]imidazol-6-yl)pyrimidin-2-yl)amino)pyridin-3-yl)methyl)piperazin-1-yl)-7-oxoheptyl)amino)-6-(methylamino)nicotinamide] | > 85 | > 85
5 | CNc1ccc(C(=O)Nc2ccc(N(C)C)nn2)c(NCCCCCCCC(=O)N2CCN(Cc3ccc(Nc4ncc(F)c(-c5cc(F)c6nc(C)n(C(C)C)c6c5)n4)nc3)CC2)n1 [CPD-605, N-(6-(dimethylamino)pyridazin-3-yl)-2-((8-(4-((6-((5-fluoro-4-(4-fluoro-1-isopropyl-2-methyl-1H-benzo[d]imidazol-6-yl)pyrimidin-2-yl)amino)pyridin-3-yl)methyl)piperazin-1-yl)-8-oxooctyl)amino)-6-(methylamino)nicotinamide] | > 85 | > 85
6 | CNc1ccc(C(=O)Nc2ccc(N(C)C)nn2)c(NCCOCCC(=O)N2CCN(Cc3ccc(Nc4ncc(F)c(-c5cc(F)c6nc(C)n(C(C)C)c6c5)n4)nc3)CC2)n1 [CPD-606, N-(6-(dimethylamino)pyridazin-3-yl)-2-((2-(3-(4-((6-((5-fluoro-4-(4-fluoro-1-isopropyl-2-methyl-1H-benzo[d]imidazol-6-yl)pyrimidin-2-yl)amino)pyridin-3-yl)methyl)piperazin-1-yl)-3-oxopropoxy)ethyl)amino)-6-(methylamino)nicotinamide] | > 85 | > 85

From patent US20260297081A1, “COMPOUNDS AND METHODS OF TREATING CANCERS” (Cullgen Inc., priority 2023, published 2026)
